Results taken from patent US7276523B2, “Aminopyridine derivatives as estrogen receptor modulators” (SmithKline Beecham Corporation, priority 2001, dated 2007).

Columns and labels:
[1] = biological target: T1, GST-hERα (ligand binding domain) (Homo sapiens, UniProt P03372); assay: Competition binding assay (SPA, [3H]estradiol), ER alpha; conditions: read-out: Avg. ER alpha Ki (n)
T1 construct: made in house; host or cells: E. coli BL21(DE3)pLysS
T1 sequence (P03372 311-547 limits assumed): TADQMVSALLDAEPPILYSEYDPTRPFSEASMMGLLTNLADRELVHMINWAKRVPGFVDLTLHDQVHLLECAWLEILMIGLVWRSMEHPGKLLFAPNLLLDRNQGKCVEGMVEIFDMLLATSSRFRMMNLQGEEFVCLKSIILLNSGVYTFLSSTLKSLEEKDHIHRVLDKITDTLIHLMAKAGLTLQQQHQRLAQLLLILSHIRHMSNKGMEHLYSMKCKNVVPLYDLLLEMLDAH
Protocol: The ligand binding domain of both ERα and ERβ were subcloned into pGEX-2T vector, which had been modified to contain KpnI and BamHI restriction, sites in the multiple cloning region. GST-hERα and GST-hERβ proteins were made by transforming BL21(DE3)pLYS S competent cells with the appropriate expression plasmid. […] The cells were collected by centrifugation and resuspended in lysis buffer (50 mM Tris pH 7.9; 250 mM KCl; 1% Triton X-100; 10 mM DTT; 1 mM PMSF). The lysate was then placed on dry ice until completely frozen. The frozen lysate was thawed and centrifuged 20 min at 4° C. at 80 K rpm in a TLA 100.2 rotor in a Beckman TL-100 ultracentrifuge. The supernatant was retained and glycerol was added to a final concentration of 10%. The protein content of the supernatant was quantitated using the BioRad Protein Assay Reagent. The protein was then stored at −80° C. until used in the binding assay.
Polylysine coated Yttrium Silicate SPA beads (Amersham #RPNQ 0010) was resuspended in assay buffer [10 mM potassium phosphate buffer pH 7.0 containing 2 mM EDTA, 50 mM NaCl, 1 mM DTT, 2 mM CHAPS, 10% glycerol] to a concentration of 1 g/60 ml. 30 ul (0.5 mg) of the SPA beads was then added to each well of a Packard OptiPlate (Packard 6005190, Packard Instruments, Meriden, Conn.). […] The plates were shaken vigorously for two hours then counted on a Packard TopCount using the protocol for counting tritium yttrium silicate SPA beads. Data analysis was done by standard methods. % Bound was calculated for each concentration of each test compound using the equation % Bound=100*((Test−NS)/(T−NS)). % Bound was plotted vs concentration and curve fitting was accomplished using non-linear regression.
Saturation binding assays were run similarly to competition assays.

[2] = biological target: T2, GST-hERβ (ligand binding domain) (Homo sapiens, UniProt Q92731); assay: Competition binding assay (SPA, [3H]estradiol), ER beta
T2 construct: made in house; host or cells: E. coli BL21(DE3)pLysS
Protocol: The ligand binding domain of both ERα and ERβ were subcloned into pGEX-2T vector, which had been modified to contain KpnI and BamHI restriction, sites in the multiple cloning region. GST-hERα and GST-hERβ proteins were made by transforming BL21(DE3)pLYS S competent cells with the appropriate expression plasmid. Liquid cultures containing standard Luria-Bertani (LB) broth with 0.1 mg/ml ampicillin and 0.033 mg/ml chloramphenicol were grown at 37° C. to an OD600 of 0.5-1.0 then induced with IPTG for 2-3 hours. The cells were collected by centrifugation and resuspended in lysis buffer (50 mM Tris pH 7.9; 250 mM KCl; 1% Triton X-100; 10 mM DTT; 1 mM PMSF). The lysate was then placed on dry ice until completely frozen. The frozen lysate was thawed and centrifuged 20 min at 4° C. at 80 K rpm in a TLA 100.2 rotor in a Beckman TL-100 ultracentrifuge. The supernatant was retained and glycerol was added to a final concentration of 10%. The protein content of the supernatant was quantitated using the BioRad Protein Assay Reagent. The protein was then stored at −80° C. until used in the binding assay.
Polylysine coated Yttrium Silicate SPA beads (Amersham #RPNQ 0010) was resuspended in assay buffer [10 mM potassium phosphate buffer pH 7.0 containing 2 mM EDTA, 50 mM NaCl, 1 mM DTT, 2 mM CHAPS, 10% glycerol] to a concentration of 1 g/60 ml. 30 ul (0.5 mg) of the SPA beads was then added to each well of a Packard OptiPlate (Packard 6005190, Packard Instruments, Meriden, Conn.). […] [2, 4, 6, 7, 16, 17-3H(N)]-Estradiol was added as a 30 ul aliquot to give a final assay concentration of 1 nM. To give a final volume of 100 ul, either 10 ul of a test compound solution (typically in 10% DMSO as solvent), solvent containing no test compound (to determine total binding, T), or solvent containing 17-b-estradiol at 100 uM (to determine non-specific binding, NS) were finally added to the plate. The plates were shaken vigorously for two hours then counted on a Packard TopCount using the protocol for counting tritium yttrium silicate SPA beads. Data analysis was done by standard methods. % Bound was calculated for each concentration of each test compound using the equation % Bound=100*((Test−NS)/(T−NS)). % Bound was plotted vs concentration and curve fitting was accomplished using non-linear regression.
Saturation binding assays were run similarly to competition assays. […] [2, 4, 6, 7, 16, 17-3H(N)]-Estradiol was added such that the final concentration ranged from 0.1 to 100 nM.

T2 sequence (Q92731 264-498 limits assumed): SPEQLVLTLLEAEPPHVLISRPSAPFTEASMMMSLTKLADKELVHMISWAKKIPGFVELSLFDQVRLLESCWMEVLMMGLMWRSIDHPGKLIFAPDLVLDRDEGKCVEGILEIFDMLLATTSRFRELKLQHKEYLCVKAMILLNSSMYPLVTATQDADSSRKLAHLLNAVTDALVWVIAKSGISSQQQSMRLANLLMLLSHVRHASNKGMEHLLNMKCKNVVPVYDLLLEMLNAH

Row | Ki [1] [nM] | Ki [2] [nM] | SMILES
1 | 1260 | > 3000 | Cc1cc(O)ccc1-c1cc(-c2ccccc2)cc(N(C)CCc2ccccn2)n1 [Example 23, 3-methyl-4-(6-{methyl[2-(2-pyridinyl)ethyl]amino}-4-phenyl-2-pyridinyl)phenol]
2 | 660 | 790 | CCCCN(C)c1cc(-c2ccccc2)cc(-c2cccc(O)c2)n1 [Example 12, 3-{6-[butyl(methyl)amino]-4-phenyl-2-pyridinyl}phenol]
3 | 160 | 680 | Cc1cc(O)ccc1-c1cc(-c2ccccc2)cc(N(C)CCc2ccccc2)n1 [Example 6, 3-methyl-4-{6-[methyl(2-phenylethyl)amino]-4-phenyl-2-pyridinyl}phenol]
4 | 210 | 660 | Cc1cc(O)ccc1-c1cc(-c2ccccc2)cc(N(C)CCC(C)C)n1 [Example 21, 4-{6-[isopentyl(methyl)amino]-4-phenyl-2-pyridinyl}-3-methylphenol]
5 | 830 | 1000 | CCN(Cc1ccncc1)c1cc(-c2ccccc2)cc(-c2ccc(O)cc2C)n1 [Example 28, 4-{6-[ethyl(4-pyridinylmethyl)amino]-4-phenyl-2-pyridinyl}-3-methylphenol]
6 | 380 | 1120 | Cc1cc(O)ccc1-c1cc(-c2ccccc2)cc(N(C)Cc2ccccc2)n1 [Example 15, 4-{6-[benzyl(methyl)amino]-4-phenyl-2-pyridinyl}-3-methylphenol]
7 | 450 | 1410 | Cc1cc(O)ccc1-c1cc(-c2ccccc2)cc(N(C)Cc2cccc3ccccc23)n1 [Example 18, 3-methyl-4-{6-[methyl(1-naphthylmethyl)amino]-4-phenyl-2-pyridinyl}phenol]
8 | 20 | 110 | Cc1cc(O)ccc1-c1cc(-c2ccccc2)cc(N2CCC(Cc3ccccc3)CC2)n1 [Example 29, 4-[6-(4-benzyl-1-piperidinyl)-4-phenyl-2-pyridinyl]-3-methylphenol]
9 | 130 | 250 | Cc1cc(O)ccc1-c1cc(-c2ccccc2)cc(N(CCc2ccccc2)Cc2ccccc2)n1 [Example 31, 4-{6-[benzyl(2-phenylethyl)amino]-4-phenyl-2-pyridinyl}-3-methylphenol]
10 | 2000 | 1170 | CCOCCN(CCOCC)c1cc(-c2ccccc2)cc(-c2ccc(O)cc2C)n1 [Example 32, 4-{6-[bis(2-ethoxyethyl)amino]-4-phenyl-2-pyridinyl}-3-methylphenol]
11 | 620 | 1260 | CC(C)CCN(C)c1cc(-c2ccccc2)cc(-c2ccc(O)cc2)n1 [Example 20, 4-{6-[isopentyl(methyl)amino]-4-phenyl-2-pyridinyl}phenol]
12 | 70 | 330 | CCCN(Cc1ccccn1)c1cc(-c2ccccc2)cc(-c2ccc(O)cc2C)n1 [Example 26, 3-methyl-4-{4-phenyl-6-[propyl(2-pyridinylmethyl)amino]-2-pyridinyl}phenol]
